According to article PMC6100082, “Pyridine-Ureas as Potential Anticancer Agents: Synthesis and In Vitro Biological Evaluation” (Molecules : A Journal of Synthetic Chemistry and Natural …, 2018):

Assays:
Format in all cases: cell-based, human
[1] = system: TK-10; assay: NCI one-dose SRB assay (Renal Cancer)
In short: (§1)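 Tested once at 10^−5 M over 48 h. SRB protein staining measured growth. GI% values.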

[2] = system: 786-0; assay: NCI one-dose SRB assay (Renal Cancer)
In short: as §1

[3] = system: RXF 393; assay: NCI one-dose SRB assay (Renal Cancer)
In short: as §1

[4] = system: SN12C; assay: NCI one-dose SRB assay (Renal Cancer)
In short: as §1

[5] = system: UO-31; assay: NCI one-dose SRB assay (Renal Cancer)
In short: as §1

[6] = system: A498; assay: NCI one-dose SRB assay (Renal Cancer)
In short: as §1

[7] = system: PC-3; assay: NCI one-dose SRB assay (Prostate)
In short: as §1

[8] = system: DU-145; assay: NCI one-dose SRB assay (Prostate)
In short: as §1

[9] = system: UACC-257; assay: NCI one-dose SRB assay (Melanoma)
In short: as §1

[10] = system: MALME-3M; assay: NCI one-dose SRB assay (Melanoma)
In short: as §1

[11] = system: SK-MEL-28; assay: NCI one-dose SRB assay (Melanoma)
In short: as §1

[12] = system: LOX IMVI; assay: NCI one-dose SRB assay (Melanoma)
In short: as §1

[13] = system: HOP-92; assay: NCI one-dose SRB assay (Non-Small Cell Lung Cancer)
In short: as §1

[14] = system: NCI-H460; assay: as above
In short: as §1

[15] = system: NCI-H322M; assay: as above
In short: as §1

[16] = system: HOP-62; assay: as above
In short: as §1

[17] = system: NCI-H522; assay: as above
In short: as §1

[18] = system: A549/ATCC; assay: as above
In short: as §1

[19] = system: NCI-H23; assay: as above
In short: as §1

[20] = system: NCI-H226; assay: as above
In short: as §1

[21] = system: EKVX; assay: as above
In short: as §1

[22] = system: SR; assay: NCI one-dose SRB assay (Leukemia)
In short: as §1

[23] = system: MOLT-4; assay: NCI one-dose SRB assay (Leukemia)
In short: as §1

[24] = system: HL-60(TB); assay: NCI one-dose SRB assay (Leukemia)
In short: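 SRB assay, 48 h drug exposure, compound fixed at 10^−5 M; output expressed as % growth inhibition.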

[25] = system: CCRF-CEM; assay: NCI one-dose SRB assay (Leukemia)
In short: as §1

[26] = system: K-562; assay: NCI one-dose SRB assay (Leukemia)
In short: as §1

[27] = system: RPMI-8226; assay: NCI one-dose SRB assay (Leukemia)
In short: as §1

[28] = system: NCI 58 cell line panel; assay: NCI one-dose SRB assay, whole panel / subpanel summary
In short: as §1

[29] = Homo sapiens, 10 μM, read-out: Percentage growth inhibition (GI%)

## COc1ccc(NC(=O)Nc2ccc(-c3ccc(OC)c(OC)c3)nc2C)cc1 [Compound 8n, 1-(6-(3,4-Dimethoxyphenyl)-2-methylpyridin-3-yl)-3-(4-methoxyphenyl) Urea]
[1]; Homo sapiens, TK-10, 10 μM, read-out: Percentage growth inhibition (GI%)
  inhibition at 10 µM: 40%
[1]; TK-10, 1.00E-5 Molar
  Growth Percent: 60.42%
[2]; 786-0, 1.00E-5 Molar
  Growth Percent: 11.07%
[2]; Homo sapiens, 786-0, 10 μM, read-out: Percentage growth inhibition (GI%)
  inhibition at 10 µM: 89%
[3]; Homo sapiens, RXF 393, 10 μM, read-out: Percentage growth inhibition (GI%)
  inhibition at 10 µM: 42%
[3]; RXF 393, 1.00E-5 Molar
  Growth Percent: 58.20%
[4]; 1.00E-5 Molar
  Growth Percent: 64.38%
[4]; [29]
  inhibition at 10 µM: 36%
[5]; Homo sapiens, UO-31, 10 μM, read-out: Percentage growth inhibition (GI%)
  inhibition at 10 µM: 19%
[5]; UO-31, 1.00E-5 Molar
  Growth Percent: 81.72%
[6]; A498, 1.00E-5 Molar
  Growth Percent: 71.94%
[6]; Homo sapiens, A498, 10 μM, read-out: Percentage growth inhibition (GI%)
  inhibition at 10 µM: 29%
[7]; Homo sapiens, PC-3, 10 μM, read-out: Percentage growth inhibition (GI%)
  inhibition at 10 µM: 19%
[7]; PC-3, 1.00E-5 Molar
  Growth Percent: 81.42%
[8]; DU-145, 1.00E-5 Molar
  Growth Percent: 72.24%
[8]; Homo sapiens, DU-145, 10 μM, read-out: Percentage growth inhibition (GI%)
  inhibition at 10 µM: 28%
[9]; Homo sapiens, UACC-257, 10 μM, read-out: Percentage growth inhibition (GI%)
  inhibition at 10 µM: 45%
[9]; UACC-257, 1.00E-5 Molar
  Growth Percent: 55.47%
[10]; 1.00E-5 Molar
  Growth Percent: 44.12%
[10]; [29]
  inhibition at 10 µM: 56%
[11]; Homo sapiens, SK-MEL-28, 10 μM, read-out: Percentage growth inhibition (GI%)
  inhibition at 10 µM: 14%
[11]; SK-MEL-28, 1.00E-5 Molar
  Growth Percent: 86.76%
[12]; 1.00E-5 Molar
  Growth Percent: 88.83%
[12]; [29]
  inhibition at 10 µM: 12%
[13]; HOP-92, 1.00E-5 Molar
  Growth Percent: 73.37%
[13]; Homo sapiens, HOP-92, 10 μM, read-out: Percentage growth inhibition (GI%)
  inhibition at 10 µM: 27%
[14]; Homo sapiens, NCI-H460, 10 μM, read-out: Percentage growth inhibition (GI%)
  inhibition at 10 µM: 83%
[14]; NCI-H460, 1.00E-5 Molar
  Growth Percent: 17.58%
[15]; 1.00E-5 Molar
  Growth Percent: 86.96%
[15]; [29]
  inhibition at 10 µM: 14%
[16]; HOP-62, 1.00E-5 Molar
  Growth Percent: 56.53%
[16]; Homo sapiens, HOP-62, 10 μM, read-out: Percentage growth inhibition (GI%)
  inhibition at 10 µM: 44%
[17]; Homo sapiens, NCI-H522, 10 μM, read-out: Percentage growth inhibition (GI%)
  inhibition at 10 µM: 51%
[17]; NCI-H522, 1.00E-5 Molar
  Growth Percent: 49.88%
[18]; 1.00E-5 Molar
  Growth Percent: 57.02%
[18]; [29]
  inhibition at 10 µM: 43%
[19]; Homo sapiens, NCI-H23, 10 μM, read-out: Percentage growth inhibition (GI%)
  inhibition at 10 µM: 33%
[19]; NCI-H23, 1.00E-5 Molar
  Growth Percent: 67.43%
[20]; Homo sapiens, NCI-H226, 10 μM, read-out: Percentage growth inhibition (GI%)
  inhibition at 10 µM: 42%
[20]; NCI-H226, 1.00E-5 Molar
  Growth Percent: 58.04%
[21]; 1.00E-5 Molar
  Growth Percent: 91.15%
[21]; [29]
  inhibition at 10 µM: < 10%
[22]; 1.00E-5 Molar
  Growth Percent: 57.29%
[22]; [29]
  inhibition at 10 µM: 43%
[23]; Homo sapiens, MOLT-4, 10 μM, read-out: Percentage growth inhibition (GI%)
  inhibition at 10 µM: 15%
[23]; MOLT-4, 1.00E-5 Molar
  Growth Percent: 85.62%
[24]; 1.00E-5 Molar
  Growth Percent: 85.74%
[24]; [29]
  inhibition at 10 µM: 15%
[25]; 1.00E-5 Molar
  Growth Percent: 97.16%
[25]; [29]
  inhibition at 10 µM: < 10%
[26]; Homo sapiens, K562, K-562, 10 μM, read-out: Percentage growth inhibition (GI%)
  inhibition at 10 µM: 27%
[26]; K-562, 1.00E-5 Molar
  Growth Percent: 73.25%
[27]; Homo sapiens, RPMI-8226, 10 μM, read-out: Percentage growth inhibition (GI%)
  inhibition at 10 µM: 17%
[27]; RPMI-8226, 1.00E-5 Molar
  Growth Percent: 83.77%
[28]; Homo sapiens, 10 μM, one dose, read-out: mean inhibition (mean % growth inhibition over NCI 58 cell line panel)
  inhibition at 10 µM: 22 to 34%
[28]; One Dose Mean Graph, 1.00E-5 Molar
  Mean Growth Percent: 66.18%
